Experiments:
[1] = tested on: house dust mite-induced atopic dermatitis model; test: House dust mite-induced atopic dermatitis model; assay type: in vivo, NC/Nga mice
Experimental: The backs and ears of NC/Nga mice aged 8 weeks were shaved, and 0.1 g house dust mite cream was applied once every three days for a total of seven times to induce atopic dermatitis. For the negative control group where dermatitis was not induced, a cream not including house dust mites was applied. […] To the comparative control group, the JAK1 inhibitor upadacitinib was orally administered at 6 mg/kg twice daily for 14 days.
After inducing atopic dermatitis using house dust mite cream, symptoms as well as the state of the skin of the cars and backs were scored twice weekly starting from the initial date of administration; the measurements were added and the means are shown in FIG. 9. Furthermore, on the date of termination of the experiment, skin tissue and serum were collected to observe the level of expression of inflammatory cytokines in the tissue and the level of expression of IgE in serum using ELISA analysis; the results are shown in FIG. 10.

[2] = Metabolic stability (MS) evaluation; assay type: in vitro ADME
NF-κb signaling pathway = test: Intranuclear movement of p50 and p65 in LPS-stimulated THP-1 cells; assay type: cell-based; settings: LPS-treated THP-1 cells; FIG. 1b

Question: Which “dermatitis on the back and ears” value ([1]; 10, 20 and 30 mpk orally twice daily for 14 days, FIG. 9) does the source give for CCNc1cc(Nc2ccc(C(=O)N3CCC(N4CCOCC4)CC3)cc2OC)nc2[nH]cc(C(F)(F)F)c12 [Compound 1, (4-((4-(ethylamino)-3-(trifluoromethyl)-1H-pyrrolo[2,3-b]pyridine-6-yl)amino)-3-methoxyphenyl)(4-morpholinopiperidine-1-yl)methanone] here?
Answer: Its value is “alleviated in a concentration-dependent manner”.

Question: What about the “IgE expression in serum” value ([1]; 10, 20 and 30 mpk, ELISA, FIG. 10) of the same compound?
Answer: The value was “concentration-dependent reduction”.

Question: And the alleviating dermatitis ([1]; 30 mpk orally twice daily for 14 days)?
Answer: Its alleviating dermatitis is “most effective”.

Question: What about the “IgE expression in serum” value ([1]; 30 mpk, ELISA, FIG. 10) of the same compound?
Answer: The value was “statistically significant reduction”.

Question: What about the “inflammatory cytokine expression in the back tissue” value ([1]; 30 mpk, against the control group, ELISA, FIG. 10) of the same compound?
Answer: Its value is “statistically significant reduction”.

Question: And the “alleviating atopic dermatitis, compared with upadacitinib control group” value ([1]; upadacitinib 6 mg/kg orally twice daily for 14 days)?
Answer: Its value is “more effective”.

Question: And the “MS (1 μM) (% remaining during 30 min) Human” value [2]?
Answer: Its value is 39%.

Question: What about the “intranuclear movement of p50” value (NF-κb signaling pathway) of the same compound?
Answer: The value was “effectively inhibited”.

Question: And the “intranuclear movement of p65” value (NF-κb signaling pathway)?
Answer: Its value is “effectively inhibited”.

— patent publication US12194048B2, “Use of pyrrolopyridine derivatives for preventing or treating inflammatory diseases” (VORONOI CO., LTD., priority 2020, dated 2025)
